Reference: patent US20240148821A1, “PHARMACEUTICAL USE OF CYCLIC PEPTIDE COMPOUND” (CHUGAI SEIYAKU KABUSHIKI KAISHA, priority 2021, published 2024)
Numbered stars: 1 amine (or outer) side, 2 acyl side, 3 side chain; on linkers, the order of the positions; unused ones are H or OH. Bridge positions count the residues as written; N and C are the ends. Square brackets hold non-standard residues; d marks the D form. Peptide text beside a SMILES is read from it. * marks the point of attachment. hPhe(3-Cl-4-CF3) = N[C@@H](CCc1ccc(C(F)(F)F)c(Cl)c1)C(=O)O; hPhe(3-F,4-CF3) = N[C@@H](CCc1ccc(C(F)(F)F)c(F)c1)C(=O)O; NEtPhe(4-CF3) = CCN[C@@H](Cc1ccc(C(F)(F)F)cc1)C(=O)O; NMePhe(4-CF3) = CN[C@@H](Cc1ccc(C(F)(F)F)cc1)C(=O)O; hPhe(4-CF3) = N[C@@H](CCc1ccc(C(F)(F)F)cc1)C(=O)O; NMePhe(3,4-F2) = CN[C@@H](Cc1ccc(F)c(F)c1)C(=O)O; NMePhe(3-Cl) = CN[C@@H](Cc1cccc(Cl)c1)C(=O)O; NMePhe(4-Cl) = CN[C@@H](Cc1ccc(Cl)cc1)C(=O)O; NMedβ3hAla = C[C@H](CC(=O)[*:2])N(C)[*:1]; NMeGly(cPent) = CN[C@H](C(=O)O)C1CCCC1; Pro(4,4-F2) = O=C(O)[C@@H]1CC(F)(F)CN1; NMeCha = CN[C@@H](CC1CCCCC1)C(=O)O; Hyp = O=C(O)[C@@H]1C[C@@H](O)CN1; NMeChg = CN[C@H](C(=O)O)C1CCCCC1; NMeF = CN[C@@H](Cc1ccccc1)C(=O)O; NMeI = CC[C@H](C)[C@H](NC)C(=O)O; NMeD = CN[C@@H](CC(=O)O)C(=O)O; NMeL = CN[C@@H](CC(C)C)C(=O)O; NMeV = CN[C@H](C(=O)O)C(C)C; d(β3hA) = C[C@@H](N)CC(=O)O; NMeA = CN[C@@H](C)C(=O)O; NMeAib = CNC(C)(C)C(=O)O; Piperidide = C1CCN(*)CC1; Pyrrolidide = C1CCN(*)C1; dNMeA = CN[C@H](C)C(=O)O; Ac5c = NC1(C(=O)O)CCCC1; Aze = O=C(O)[C@@H]1CCN1; Ac4c = NC1(C(=O)O)CCC1; Sar = CNCC(=O)O

Biological target: protein-protein interaction between Kras and SOS1 (biotin-tagged human Kras loaded with GDP, His-tagged human SOS1) (Homo sapiens (Human), UniProt P01116, G12D)
Assay: Protein-protein interaction inhibition between Kras and SOS1 (KrasG12D-SOS PPI) using AlphaScreen;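 note: kras produced in E. coli, Ni-coupled donor beads and streptavidin acceptor beads, excitation 680 nm with emission detected at 520–620 nm via singlet oxygen transfer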
Assay type: biochemical
Details: AlphaScreen; biotin-tagged human Kras loaded with GDP, His-tagged human SOS1; read-out: KRAS G12D-SOS PPI IC50

Structure (SMILES) | IC50
CC[C@H](C)[C@@H]1NC(=O)[C@H](C)N(C)C(=O)C[C@@H](C(=O)N2CCCCC2)N(C)C(=O)[C@H](C(C)C)N(C)C(=O)C2(CCCC2)NC(=O)[C@H](Cc2cccc(Cl)c2)N(C)C(=O)[C@H](CCc2ccc(C(F)(F)F)c(Cl)c2)NC(=O)CN(C)C(=O)[C@H](CC2CCCCC2)N(C)C(=O)CN(C)C(=O)CN(C)C1=O [Compound 282] ([NMeA]I[Sar][Sar][NMeCha][Sar][hPhe(3-Cl-4-CF3)][NMePhe(3-Cl)][Ac5c][NMeV][NMeD]-Piperidide; lactam N-11) | 94 nM
CC[C@H](C)[C@@H]1NC(=O)[C@H](C)N(C)C(=O)C[C@@H](C)NC(=O)[C@H](C2CCCCC2)N(C)C(=O)C(C)(C)N(C)C(=O)[C@@H]2CCCN2C(=O)[C@H](CCc2ccc(C(F)(F)F)c(Cl)c2)NC(=O)CN(C)C(=O)[C@H](CC2CCCCC2)N(C)C(=O)[C@@H]2CCN2C(=O)[C@H](C)N(C)C1=O [Compound 291] (cyclo([Aze][NMeCha][Sar][hPhe(3-Cl-4-CF3)]P[NMeAib][NMeChg][d(β3hA)][NMeA]I[NMeA])) | 55 nM
CC[C@H](C)[C@@H]1NC(=O)[C@H](CC(C)C)N(C)C(=O)C[C@@H](C(=O)N2CCCCC2)N(C)C(=O)[C@H](C2CCCCC2)N(C)C(=O)C2(CCCC2)NC(=O)[C@H](C)N(C)C(=O)[C@H](CCc2ccc(C(F)(F)F)c(Cl)c2)NC(=O)CN(C)C(=O)[C@H](CC2CCCCC2)N(C)C(=O)CN(C)C(=O)CN(C)C1=O [Compound 294] ([NMeL]I[Sar][Sar][NMeCha][Sar][hPhe(3-Cl-4-CF3)][NMeA][Ac5c][NMeChg][NMeD]-Piperidide; lactam N-11) | 1.4 nM
CCO[C@@H]1C[C@H]2C(=O)NC3(CCC3)C(=O)N(C)[C@@H](C3CCCCC3)C(=O)N(C)[C@H](C)CC(=O)N(C)[C@@H](CC(C)C)C(=O)N[C@@H]([C@@H](C)CC)C(=O)N(C)[C@@H](C)C(=O)N3CC[C@H]3C(=O)N(CC)[C@@H](Cc3ccc(C(F)(F)F)cc3)C(=O)N(C)CC(=O)N[C@@H](CCc3ccc(C(F)(F)F)c(Cl)c3)C(=O)N2C1 [Compound 296] (cyclo([Ac4c][NMeChg][NMedβ3hAla][NMeL]I[NMeA][Aze][NEtPhe(4-CF3)][Sar][hPhe(3-Cl-4-CF3)][Hyp](Et))) | 55 nM
CC[C@H](C)[C@@H]1NC(=O)[C@H](C)N(C)C(=O)C[C@@H](C)NC(=O)[C@H](C2CCCC2)N(C)C(=O)C2(CCCC2)NC(=O)[C@@H]2CCCN2C(=O)[C@H](CCc2ccc(C(F)(F)F)c(Cl)c2)NC(=O)[C@@H](C)N(C)C(=O)[C@H](Cc2ccc(F)c(F)c2)N(C)C(=O)[C@@H]2CCN2C(=O)[C@H](C)N(C)C1=O [Compound 310] (cyclo([Ac5c][NMeGly(cPent)][d(β3hA)][NMeA]I[NMeA][Aze][NMePhe(3,4-F2)][dNMeA][hPhe(3-Cl-4-CF3)]P)) | 96 nM
CC[C@H](C)[C@@H]1NC(=O)[C@H](CC(C)C)N(C)C(=O)C[C@@H](C(=O)N2CCCC2)N(C)C(=O)[C@H]([C@@H](C)CC)N(C)C(=O)C2(CCCC2)NC(=O)[C@@H]2CCCN2C(=O)[C@H](CCc2ccc(C(F)(F)F)c(F)c2)NC(=O)CN(C)C(=O)[C@H](C2CCCC2)N(C)C(=O)[C@@H]2CCN2C(=O)[C@H](C)N(C)C1=O [Compound 313] ([NMeL]I[NMeA][Aze][NMeGly(cPent)][Sar][hPhe(3-F,4-CF3)]P[Ac5c][NMeI][NMeD]-Pyrrolidide; lactam N-11) | 4.2 nM
CC[C@H](C)[C@@H]1NC(=O)[C@H](CC(C)C)N(C)C(=O)C[C@@H](C)N(C)C(=O)[C@H](CC(C)C)NC(=O)C(C)(C)N(C)C(=O)[C@H](CC(C)C)NC(=O)[C@H](CCc2ccc(C(F)(F)F)cc2)NC(=O)CN(C)C(=O)[C@H](Cc2ccc(Cl)cc2)N(C)C(=O)CN(C)C(=O)CN(C)C1=O [Compound 315] (cyclo(I[Sar][Sar][NMePhe(4-Cl)][Sar][hPhe(4-CF3)]L[NMeAib]L[NMedβ3hAla][NMeL])) | 120 nM
CC[C@H](C)[C@@H]1NC(=O)[C@H](CC(C)C)N(C)C(=O)C[C@@H](C)N(C)C(=O)[C@H](C2CCCCC2)N(C)C(=O)C2(CCCC2)NC(=O)[C@@H]2CC(F)(F)CN2C(=O)[C@H](CCc2ccc(C(F)(F)F)c(Cl)c2)NC(=O)CN(C)C(=O)[C@H](Cc2ccc(C(F)(F)F)cc2)N(C)C(=O)[C@@H]2CCN2C(=O)[C@H](C)N(C)C1=O [Compound 319] (cyclo([Ac5c][NMeChg][NMedβ3hAla][NMeL]I[NMeA][Aze][NMePhe(4-CF3)][Sar][hPhe(3-Cl-4-CF3)][Pro(4,4-F2)])) | 8.2 nM
CCO[C@@H]1C[C@H]2C(=O)N(C)[C@@H](Cc3ccccc3)C(=O)N(C)[C@@H](CC(C)C)C(=O)N[C@H](C)CC(=O)N(C)[C@@H](C)C(=O)N[C@@H]([C@@H](C)CC)C(=O)N(C)CC(=O)N(C)CC(=O)N(C)[C@@H](Cc3ccc(Cl)cc3)C(=O)N(C)CC(=O)N[C@@H](CCc3ccc(C(F)(F)F)cc3)C(=O)N2C1 [Compound 322] (cyclo([Hyp](Et)[NMeF][NMeL][d(β3hA)][NMeA]I[Sar][Sar][NMePhe(4-Cl)][Sar][hPhe(4-CF3)])) | 31 nM
CC[C@H](C)[C@@H]1NC(=O)[C@H](C)N(C)C(=O)C[C@@H](C)N(C)C(=O)[C@H](CC(C)C)NC(=O)C(C)(C)N(C)C(=O)[C@H](CC(C)C)NC(=O)[C@H](CCc2ccc(C(F)(F)F)cc2)NC(=O)CN(C)C(=O)[C@H](Cc2ccc(Cl)cc2)N(C)C(=O)CN(C)C(=O)CN(C)C1=O [Compound 323] (cyclo(I[Sar][Sar][NMePhe(4-Cl)][Sar][hPhe(4-CF3)]L[NMeAib]L[NMedβ3hAla][NMeA])) | 140 nM
